Key:
[1] = test system: IL-1B and IL-6 gene expression in rainbow trout macrophages; test: RT-PCR of IL-1B and IL-6 in trout macrophages with different cyclodextrins (FIG. 4); type: cell-based; details: trout macrophages stimulated 30 minutes to 24 hours
Experimental: Trout macrophages were stimulated for 30 minutes to 24 hours with heptakis (2,6-di-O-methyl)-β-cyclodextrin (Heptakis); methyl-β-cyclodextrin (Methyl β); beta cyclodextrin (β CyD); 2-hydroxypropyl-β-cyclodextrin (Hydroxy β); 2-hydroxypropyl-α-cyclodextrin (Hydroxy α); gamma cyclodextrin (γ CyD). RNA was extracted and RT-PCR conducted with IL-1B and IL-6. 18s was a RNA loading control. Molecular weight standard in first lane
Since there are various forms of cyclodextrins with different side groups that appear to have different effects in mammalian macrophages, the effects of different cyclodextrins on gene expression in the trout macrophage cell cultures were tested. Trout macrophages were stimulated for 30 minutes to 24 hours with heptakis (2,6-di-O-methyl)-β-cyclodextrin (Heptakis); methyl-β-cyclodextrin (Methyl β); beta cyclodextrin (β CyD); 2-hydroxypropyl-β-cyclodextrin (Hydroxy β; 2-hydroxypropyl-α-cyclodextrin (Hydroxy α); gamma cyclodextrin (γ CyD). RNA was extracted and RT-PCR conducted with IL-1B and IL-6.
From these cell experiments, it was shown that cyclodextrin could up-regulate the innate immune system and could possibly be used as an immune agent to protect fish against pathogen challenges.

zebrafish larvae [2] = test: LPS challenge of zebrafish larvae bathed with cyclodextrin; type: in vivo; details: zebrafish larvae 2 dpf, bath 67.5-500 μg/mL, then LPS 150 μg/mL Pseudomonas aeruginosa, mortality over 36 hours
Experimental: (§1) FIGS. 5A and 5B show replicates of the effects of α-cyclodextrin at various concentrations on LPS challenge. Zebrafish larvae, 2 days post-fertilization, were bathed with 0, 67.5, 125, 250 or 500 μg/mL of alpha cyclodextrin. Zebrafish larvae were then bathed with a lethal concentration (100% mortality) of LPS (150 μg/mL—Pseudomonas aeruginosa) and assessed for mortality over 36 hours. FIGS. 5A and 5B show the cumulative mortality after challenge of zebrafish larvae treated with α-cyclodextrin
as §1, with “6A” for “5A”, “6B” for “5B”, “β-cyclodextrin” for “α-cyclodextrin”, “challenge performed in replicate.” for “challenge.”, “beta” for “alpha”
To test this, zebrafish larvae, 2 days post fertilization (dpf), were bathed with 0, 67.5, 125, 250 or 500 μg/mL of beta or alpha cyclodextrin. Zebrafish larvae were then bathed with a lethal concentration (i.e., 100% mortality) of bacterial lipopolysaccharide (LPS) (150 μg/mL Pseudomonas aeurginosa). […]

zebrafish larvae [3] = test: Larval viability during cyclodextrin treatment after first feeding; type: in vivo; details: zebrafish larvae bathed with 500 μg/mL, recorded 10 days post first feeding
Experimental: The larval viability during cyclodextrin treatment was explored. The survival during treatment was compared with normal larval growth condition after first feeding (day 5 post hatch). 6 independent batches by reproduction (84 embryos by batch) of zebrafish larvae were bathed with 0 (“Control”; normal larval growth condition) or 500 μg/mL of beta cyclodextrin (“β CyD”), alpha cyclodextrin (“α CyD”) or both (“β+α CyD”; 50/50% of each). Larval survival was recorded 10 days post first feeding ([…]) and was increased with all cyclodextrin treatments (FIG. 7).

trout macrophages = test: QBlue Cell Viability Assay (resazurin reduction) in trout macrophages; type: cell-based, rainbow trout; details: same cells as FIG. 1, saponin positive control
From the text: High fluorescence indicates no loss in cell viability. Cells were the same ones used in FIG. 1. Saponin is a positive control since it kills cells.
A primary trout macrophage culture system was used to investigate how pathogens are recognized by the innate immune system in fish (MacKenzie et al., Developmental and Comparative Immunology 27:393-400 (2003); Iliev et al., Molecular Immunology 42:1215-1223 (2005); Iliev et al. FEBS Letters 579 (29):6519-6528 (2005)). In this system, macrophages can be stimulated by various compounds and the expression of immune genes such as interleukin 1 B (IL-1B) or tissue necrosis factor (TNF) can be assayed as a measure of the degree of inflammatory stimulation and, thus, activation of the innate immune system. The effect of nanoparticles on the immune system of trout as an indication of the possible harmful effects of these compounds on aquatic organisms was studied. This involved exposing the cultured trout macrophages to nanoparticles and looking for effects on IL-1B and interferon alpha (IFNa) gene expression. Bacterial lipopolysaccharide (LPS) was used as a positive stimulatory control. […] RNA was extracted from cells and analyzed by QPCR for IL-1B expression. […] The effect of beta cyclodextrin on any cell viability was determined using the QBlue Cell Viability Assay Kit (BioChain) and saponin as a positive control for cell death.

[4] = test system: TNF, Mx, IL-6, IL-1B, TLR, IFN, CD18, PU1 gene expression in trout macrophages; test: RT-PCR of immune genes in trout macrophages stimulated 24 hours (FIG. 3); type: cell-based, rainbow trout
Experimental: Cells were stimulated for 24 hours and RNA extracted and RT-PCR conducted with TNF (tissue necrosis factor), Mx protein, IL-6 (interleukin 6), IL-1B (interleukin 1B), TLR (toll-like receptor), IFN (interferon), CD18 (cluster of differentiation 18), and PU1 (transcription factor PU1). 18S is a RNA loading control. Molecular weight standard in first lane.
The effects of cyclodextrin on the expression of several other genes such as TNF and IL-6 that are also pro-inflammatory were studied (FIG. 3). […] Cells were stimulated for 24 hours and RNA extracted and RT-PCR conducted with TNF (tissue necrosis factor), Mx protein, IL-6 (interleukin 6), IL-1B (interleukin 1B), TLR (toll-like receptor), IFN (interferon), CD18 (cluster of differentiation 18), and PU1 (transcription factor PU1). 18S is a RNA loading control. Molecular weight standard is in the first lane.

[5] = test system: IL-1B gene expression in trout macrophages; test: IL-1B gene expression in primary trout macrophage culture (QPCR); type: cell-based, rainbow trout; details: trout macrophages stimulated 24 hours, LPS positive control
Experimental: LPS is a positive stimulatory control. Macrophages were isolated from head kidneys of rainbow trout, plated and then stimulated with the preparations for 24 hours. RNA was extracted from cells and analyzed by QPCR for IL-1B expression. Data are means for 3 independent trials.
Standard SYBR-green based methodology was used for anti-viral and pro-inflammatory gene expression in mucosal immune system (intestine/gills/skin/spleen) to evaluate effective dose and identify the effects of β-cyclodextrins on tissue activation profiles. Briefly, 2 μg of total RNA was used for cDNA synthesis (SuperScript® III, Invitrogen) and subsequently diluted with nuclease-free water to 1 ng/μL cDNA. Gene-specific high-melting temperature primers for genes of interest were designed using NCBI/Primer-BLAST suite. […] Quantitative expression data between different times were examined by one-way ANOVA using SPSS 17 statistical software and the differences were considered significant at p<0.05.
A primary trout macrophage culture system was used to investigate how pathogens are recognized by the innate immune system in fish (MacKenzie et al., Developmental and Comparative Immunology 27:393-400 (2003); Iliev et al., Molecular Immunology 42:1215-1223 (2005); Iliev et al. FEBS Letters 579 (29):6519-6528 (2005)). […] RNA was extracted from cells and analyzed by QPCR for IL-1B expression. […]

In the case of `COC[C@H]1O[C@@H]2O[C@H]3[C@H](O)[C@@H](OC)[C@@H](O[C@H]4[C@H](O)[C@@H](OC)[C@@H](O[C@H]5[C@H](O)[C@@H](OC)[C@@H](O[C@H]6[C@H](O)[C@@H](OC)[C@@H](O[C@H]7[C@H](O)[C@@H](OC)[C@@H](O[C@H]8[C@H](O)[C@@H](OC)[C@@H](O[C@H]1[C@H](O)[C@H]2OC)O[C@@H]8COC)O[C@@H]7COC)O[C@@H]6COC)O[C@@H]5COC)O[C@@H]4COC)O[C@@H]3COC` [Heptakis, heptakis (2,6-di-O-methyl)-β-cyclodextrin], the IL-1B expression [1] was “stimulated” and the IL-6 expression [1] was “stimulated”.

For `OC[C@H]1O[C@@H]2O[C@H]3[C@H](O)[C@@H](O)[C@@H](O[C@H]4[C@H](O)[C@@H](O)[C@@H](O[C@H]5[C@H](O)[C@@H](O)[C@@H](O[C@H]6[C@H](O)[C@@H](O)[C@@H](O[C@H]7[C@H](O)[C@@H](O)[C@@H](O[C@H]1[C@H](O)[C@H]2O)O[C@@H]7CO)O[C@@H]6CO)O[C@@H]5CO)O[C@@H]4CO)O[C@@H]3CO` [alpha cyclodextrin], the “protection of larvae against lethal LPS challenge” value (zebrafish larvae [2]) was “protected the larvae against the LPS” and the “larval survival versus control” value (zebrafish larvae [3]) was “increased”.

`OC[C@H]1O[C@@H]2O[C@H]3[C@H](O)[C@@H](O)[C@@H](O[C@H]4[C@H](O)[C@@H](O)[C@@H](O[C@H]5[C@H](O)[C@@H](O)[C@@H](O[C@H]6[C@H](O)[C@@H](O)[C@@H](O[C@H]7[C@H](O)[C@@H](O)[C@@H](O[C@H]8[C@H](O)[C@@H](O)[C@@H](O[C@H]1[C@H](O)[C@H]2O)O[C@@H]8CO)O[C@@H]7CO)O[C@@H]6CO)O[C@@H]5CO)O[C@@H]4CO)O[C@@H]3CO` [beta cyclodextrin] was tested, and the cell viability (trout macrophages) was “No effect on viability”, the “protection of larvae against lethal LPS challenge” value (zebrafish larvae [2]) was “protected the larvae against the LPS” and the “larval survival versus control” value (zebrafish larvae [3]) was “increased”. For the same compound, the “most highly stimulated gene” value [4] was “IL-1B” and the IL-1B expression [5] was “potent stimulator of inflammatory gene expression”.

For `OC[C@H]1O[C@@H]2O[C@H]3[C@H](O)[C@@H](O)[C@@H](O[C@H]4[C@H](O)[C@@H](O)[C@@H](O[C@H]5[C@H](O)[C@@H](O)[C@@H](O[C@H]6[C@H](O)[C@@H](O)[C@@H](O[C@H]7[C@H](O)[C@@H](O)[C@@H](O[C@H]8[C@H](O)[C@@H](O)[C@@H](O[C@H]9[C@H](O)[C@@H](O)[C@@H](O[C@H]1[C@H](O)[C@H]2O)O[C@@H]9CO)O[C@@H]8CO)O[C@@H]7CO)O[C@@H]6CO)O[C@@H]5CO)O[C@@H]4CO)O[C@@H]3CO` [gamma cyclodextrin], the IL-1B expression [1] was “most effective form”.
